In assay [1] the target is T1, recombinant human Lp-PLA2 (Homo sapiens, UniProt Q13093).
T1 sequence (Q13093 22-441): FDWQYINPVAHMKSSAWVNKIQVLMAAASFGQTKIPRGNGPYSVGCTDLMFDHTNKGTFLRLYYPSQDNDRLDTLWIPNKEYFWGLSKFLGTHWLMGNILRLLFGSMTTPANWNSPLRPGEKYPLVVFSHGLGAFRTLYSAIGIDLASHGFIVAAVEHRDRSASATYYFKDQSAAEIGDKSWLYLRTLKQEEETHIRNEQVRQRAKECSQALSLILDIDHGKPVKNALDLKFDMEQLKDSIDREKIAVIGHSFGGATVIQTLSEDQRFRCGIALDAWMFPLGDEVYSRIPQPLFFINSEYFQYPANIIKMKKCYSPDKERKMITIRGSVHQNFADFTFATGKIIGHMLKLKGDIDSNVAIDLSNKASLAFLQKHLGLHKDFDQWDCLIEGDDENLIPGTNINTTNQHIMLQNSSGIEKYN
The experiment in a line: Recombinant human Lp-PLA2 assay (rhLp-PLA2, PED6 assay). Format: biochemical. An excerpt:
(1) Recombinant Human Lp-PLA2 Assay (rhLp-PLA2) (Also Referred to as “PED6” Assay)
N-((6-(2,4-dinitrophenyl)amino)-hexanoyl)-2-(4,4-difluoro-5,7-dimethyl-4-bora-3a,4a-diaza-s-indacene-3-pentanoyl)-1-hexadecanoyl-sn-glycero-3-phosphoethanolamine, triethylammonium salt (PED6) is a commercially available fluorescently-labeled phospholipid, which is commercially available from Invitrogene and Molecular Probes. There is a quenching […] and a Bodipy fluorescein (FL) group in the sn2 position. Upon cleavage with Lp-PLA2, the Bodipy FL group is liberated and then may result in an increase in fluorescence. Inhibitors of Lp-PLA2 therefore prevent this cleavage and no fluorescent increase is observed.
The PED6 assay was run as an unquenched 10 μL assay. The source plate containing the compounds to be tested was prepared by making 1:3 (by volume) serial dilution of the compounds within DMSO on 384-well microplate. Then, 0.01 μL of the compounds on compound source plate were transferred into 384 well Greiner 784076 (black) plates using ECHO liquid dispenser. 5 μL of recombinant human Lp-PLA2 enzyme (4 nM (or […]) rhLp-PLA2 in assay buffer of 50 mM HEPES, pH 7.4, 150 mM NaCl, 1 mM CHAPS) was added to each well of the plate. Plates were centrifuged for 10 sec at 500 rpm. After 30 minutes preincubation, 5 μL of substrate ([…] PED6 [from 5 mM DMSO stock] in assay buffer of 50 mM HEPES, pH 7.4, 150 mM NaCl, 1 mM CHAPS) was added to 384 well Greiner 784076 (black) plates. Plates were centrifuged for 10 sec at 500 rpm. The plate was covered to protect it from light and incubated for 20 min at room temperature. The plates were read for fluorescence intensity at ex: 480/em: 540 using ViewLux microplate imager for Envision spectrofluoroimeters pIC50 data, curve and QC analysis was conducted by using XL fit module in Excel.

For the next assay, the target named is T2, Lp-PLA2 in human plasma (Homo sapiens, UniProt Q13093).
T2 construct: from tissue; host or cells: pooled human plasma
T2 sequence (Q13093 22-441): T1 sequence (Q13093 22-441)
In words: Lp-PLA2 human plasma assay (Thio-PAF assay). Format: biochemical. The settings on record: pooled human plasma; lower bounds; read-out: pIC50 values in the thio-PAF assay (converted). An excerpt: (3) Lipoprotein-Associated Phospholipase A2 (Lp-PLA2) Human Plasma Assay (Also Referred to as “Thio-PAF assay”)
The human plasma assay utilizes a thioester analog of PAF (phosphatidylcholine), where hydrolysis yields to the formation of a phospholipid containing a free thiol group. The amount of thiol is quantitated continuously by reacting with CPM (7-diethylamino-3-(4′-maleimidylphenyl)-4-methylcoumarin), a maleimide which increases in fluoresence after Michael addition of thiols. This assay may detect the activity of Lp-PLA2 in human plasma, as determined by specific inhibition by Lp-PLA2 inhibitors.
The thio-PAF assay was run as a quenched 15 μL assay. Compounds source plate was prepared by making 1:3 (by volume) serial dilution of the compounds into pure DMSO on 384-well microplate. 0.01 μL of compounds on compound source plate were transferred to 384 well Greiner 784076 (black) low-volume plates by ECHO liquid dispenser. 8 μL pooled human plasma, which was previously aliquoted and frozen, was added. Plates were centrifuged for 10 sec at 500 rpm. After 30 minutes preincubation, 2 μL of substrate solution comprising 2.5 mM 2-thio-PAF [from ethanol stock], 32 μM CPM [from a DMSO stock] and 3.2 mM NEM (N-ethylmaleimide) [made fresh daily in DMSO] in assay buffer of 50 mM HEPES, pH 7.4, 150 mM NaCl, 1 mM CHAPS was added to 384 well Greiner 784076 (black) low-volume plates by BRAVO liquid handling station. After 2 mins, reaction was quenched with 5 μL of 5% aqueous trifluoroacetic acid (TFA). Plates were covered to protect from light and incubated for 40 min at room temperature. Plates were read at ex: 380/em: 485 using-Envision microplate reader. PIC50 data, curve and QC analysis were conducted by using XLFit module in Excel.

Where [2] appears, read: lower bounds, read-out: pIC50 values in the PED6 assay (converted).
The mark [3] stands for this setting: read-out: rhLp-PLA2 (PED6 assay) (pIC50) (converted).

Like-named read-outs stand apart in the source and are kept apart here.

Regarding `CC1Cn2c(cc(OCc3ccc(Oc4ccnc(C(F)(F)F)c4)c(F)c3)nc2=O)N1C` (stereo not shown) [Example E31, 7-((3-fluoro-4-((2-(trifluoromethyl)pyridin-4-yl)oxy)benzyl)oxy)-1,2-dimethyl-2,3-dihydroimidazo[1,2-c]pyrimidin-5(1H)-one], the IC50 in assay [1] (setting [2]) was at most 1 nM; on Lp-PLA2 in human plasma it was at most 100 nM.

As to `CC1(C)Cn2c(cc(OCc3ccc(Oc4ccnc(Cl)c4)c(F)c3)nc2=O)N1` [Example E82, 7-((4-((2-chloropyridin-4-yl)oxy)-3-fluorobenzyl)oxy)-2,2-dimethyl-2,3-dihydroimidazo[1,2-c]pyrimidin-5(1H)-one], the figures for the IC50 (in assay [1] (setting [2]); on Lp-PLA2 in human plasma) were at most 1 nM and at most 100 nM, respectively. For `CC1(C)Cn2c(cc(OCc3ccc(Oc4ccnc(F)c4)c(F)c3)nc2=O)N1` [Example E68, 7-((3-fluoro-4-((2-fluoropyridin-4-yl)oxy)benzyl)oxy)-2,2-dimethyl-2,3-dihydroimidazo[1,2-c]pyrimidin-5(1H)-one], in that order: at most 1 nM and at most 100 nM. For `CN1c2cc(OCc3cc(F)c(Oc4cncc(Cl)c4)c(F)c3)nc(=O)n2CC1(C)C` [Example E113, 7-((4-((5-chloropyridin-3-yl)oxy)-3,5-difluorobenzyl)oxy)-1,2,2-trimethyl-2,3-dihydroimidazo[1,2-c]pyrimidin-5(1H)-one], in that order: at most 1 nM and at most 100 nM. For `C[C@@H]1Cn2c(cc(OCc3ccc(Oc4ccc(C(F)(F)F)nc4)c(F)c3)nc2=O)N1C` [Example E107, (R)-7-((3-fluoro-4-((6-(trifluoromethyl)pyridin-3-yl)oxy)benzyl)oxy)-1,2-dimethyl-2,3-dihydroimidazo[1,2-c]pyrimidin-5(1H)-one] the same measures were at most 1 nM and at most 100 nM. For the compound `C[C@@H]1Cn2c(cc(OCc3cc(F)c(F)c(F)c3)nc2=O)N1C` [Example E48, (R)-1,2-dimethyl-7-((3,4,5-trifluorobenzyl)oxy)-2,3-dihydroimidazo[1,2-c]pyrimidin-5(1H)-one], the values for the IC50 (in assay [1] (setting [2]); on Lp-PLA2 in human plasma) were at most 10 nM and at most 100 nM, respectively. For `CC1(C)Cn2c(cc(OCc3cc(F)c(Oc4cncc(Cl)c4)c(F)c3)nc2=O)N1` [Example E128, 7-((4-((5-chloropyridin-3-yl)oxy)-3,5-difluorobenzyl)oxy)-2,2-dimethyl-2,3-dihydroimidazo[1,2-c]pyrimidin-5(1H)-one], in that order: at most 1 nM and at most 100 nM. For `CC1Cn2c(cc(OCc3ccc(Oc4cc(F)cc(C(F)(F)F)c4)c(C#N)c3)nc2=O)N1C` (stereo not shown) [Example E1, 5-(((1,2-dimethyl-5-oxo-1,2,3,5-tetrahydroimidazo[1,2-c]pyrimidin-7-yl)oxy)methyl)-2-(3-fluoro-5-(trifluoromethyl)phenoxy)benzonitrile], in that order: at most 1 nM and at most 100 nM. On to `CC1(C)Cn2c(cc(OCc3cc(F)c(Oc4ccnc(Cl)c4)c(F)c3)nc2=O)N1` [Example E45, 7-((4-((2-chloropyridin-4-yl)oxy)-3,5-difluorobenzyl)oxy)-2,2-dimethyl-2,3-dihydroimidazo[1,2-c]pyrimidin-5(1H)-one], for which the IC50 in assay [1] (setting [2]) is at most 1 nM; at Lp-PLA2 in human plasma, at most 100 nM.

For the compound `CC1(C)Cn2c(cc(OCc3cc(F)c(Oc4ccc(Cl)nc4)c(F)c3)nc2=O)N1` [Example E133, 7-((4-((6-chloropyridin-3-yl)oxy)-3,5-difluorobenzyl)oxy)-2,2-dimethyl-2,3-dihydroimidazo[1,2-c]pyrimidin-5(1H)-one], the IC50 was at most 1 nM in assay [1] (setting [2]) and at most 100 nM on Lp-PLA2 in human plasma. Take `C[C@H]1Cn2c(cc(OCc3cc(F)c(Oc4ccnc(C(F)(F)F)c4)c(F)c3)nc2=O)N1C` [Example E58, (S)-7-((3,5-difluoro-4-((2-(trifluoromethyl)pyridin-4-yl)oxy)benzyl)oxy)-1,2-dimethyl-2,3-dihydroimidazo[1,2-c]pyrimidin-5(1H)-one]: the IC50 in assay [1] (setting [2]) was at most 1 nM; in assay [1] (setting [3]) it was 0.0631 nM; on Lp-PLA2 in human plasma it was at most 100 nM. On to `C[C@H]1Cn2c(cc(OCc3ccc(Oc4cncc(C(F)(F)F)c4)c(C#N)c3)nc2=O)N1C` [Example E55, (S)-5-(((1,2-dimethyl-5-oxo-1,2,3,5-tetrahydroimidazo[1,2-c]pyrimidin-7-yl)oxy)methyl)-2-((5-(trifluoromethyl)pyridin-3-yl)oxy)benzonitrile], for which the IC50 in assay [1] (setting [2]) was at most 1 nM; at Lp-PLA2 in human plasma, at most 100 nM.

For `[2H]C([2H])(Oc1cc2n(c(=O)n1)CC(C)(C)N2C(C)C)c1cc(F)cc(F)c1` [Example E97, 7-(dideutero(3,5-difluorobenzyl)oxy)-1-isopropyl-2,2-dimethyl-2,3-dihydroimidazo[1,2-c]pyrimidin-5(1H)-one], the IC50 was at most 1 nM in assay [1] (setting [2]), 0.631 nM in assay [1] (setting [3]) and at most 100 nM on Lp-PLA2 in human plasma. On to `CC1(C)Cn2c(cc(OCc3ccc(Oc4ccnc(C(F)(F)F)c4)c(F)c3)nc2=O)N1` [Example E38, 7-((3-fluoro-4-((2-(trifluoromethyl)pyridin-4-yl)oxy)benzyl)oxy)-2,2-dimethyl-2,3-dihydroimidazo[1,2-c]pyrimidin-5(1H)-one], for which the IC50 is at most 1 nM in assay [1] (setting [2]) and at most 100 nM at Lp-PLA2 in human plasma. For `[2H]C([2H])(Oc1cc2n(c(=O)n1)CC(C)(C)N2CC)c1cccc(F)c1F` [Example E102, 7-(dideutero(2,3-difluorobenzyl)oxy)-1-ethyl-2,2-dimethyl-2,3-dihydroimidazo[1,2-c]pyrimidin-5(1H)-one], in that order: at most 10 nM and at most 100 nM. For `[2H]C([2H])(Oc1cc2n(c(=O)n1)CC(C)(C)N2C)c1cc(F)cc(F)c1` [Example E93, 7-(dideutero(3,5-difluorobenzyl)oxy)-1,2,2-trimethyl-2,3-dihydroimidazo[1,2-c]pyrimidin-5(1H)-one] the same measures were at most 10 nM and at most 100 nM. Take `C[C@H]1Cn2c(cc(OCc3cc(F)cc(F)c3)nc2=O)N1` [Example E85, (S)-7-((3,5-difluorobenzyl)oxy)-2-methyl-2,3-dihydroimidazo[1,2-c]pyrimidin-5(1H)-one]: the IC50 at Lp-PLA2 in human plasma is at most 100 nM. Still for that read-out and setting: in the case of `CN1c2cc(OCc3cc(F)c(F)cc3F)nc(=O)n2CC1(C)C` [Example E115, 1,2,2-trimethyl-7-((2,4,5-trifluorobenzyl)oxy)-2,3-dihydroimidazo[1,2-c]pyrimidin-5(1H)-one] it was at most 100 nM. The same measure, in the same setting: the figure for `CN1c2cc(OCCc3ccc(F)c(F)c3)nc(=O)n2CC1(C)C` [Example E117, 7-(3,4-difluorophenethoxy)-1,2,2-trimethyl-2,3-dihydroimidazo[1,2-c]pyrimidin-5(1H)-one] is at most 100 nM.

The values above are taken from US9051325B2, “Bicyclic [5,6] imidazo pyrimodone compounds for use in the treatment of diseases or conditions mediated by Lp-PLA2” (GlaxoSmithKline Intellectual Property Development Limited, priority 2013, dated 2015).
